From patent US20230392124A1, “METHODS AND COMPOSITIONS FOR IMPROVING SC-BETA CELLS OR ENHANCING THEIR UTILITY” (Washington University, priority 2020, published 2023)

Legend:
Assay type in all cases: cell-based, human
[1] = test system: SC-beta cells; assay: Compound treatments during Stage 6 (s6d1-7), insulin secretion; conditions: treatment during s6d1-7
Description: (§1) Other Modifications with Benefits (See e.g., FIG. 90-FIG. 95). • Y and Blebbistatin treatment during stage 4 of differentiation • Reducing volume of media • Wnt modification—IWP2 treatment during s1d2-d4 • bFGF treatment during stage 1 • Betacellulin removal during S5 • Other compound treatments during Stage 6

[2] = test system: SC beta cell differentiation; assay: Other modifications to the differentiation protocol, differentiation markers; conditions: for PDX1/NKX61 co expression: treatment during S4
Description: as §1

[3] = test system: INS-mCherry+ cells; assay: mCherry/INS reporter cell line, β cell health
Description: Stage 6 INS+/−mcherry SC-islets can be single cell dispersed, sorted for INS+ SC-β cells, and treated with a SERCA pump inhibitor (thapsigargin) to reduce insulin secretion for high throughput drug screening.

[4] = test system: WS4^corr stage 6 cells; assay: ER stress study: thapsigargin treatment, static GSIS, real-time PCR and western blot
Protocol: (§2) For static GSIS, approximately 30 stage 6 clusters were placed in transwells (Corning), equilibrated for 1 hr in 2 mM glucose KRB (TABLE 6), and challenged with sequential 1-hr 2 and 20 mM KRB treatments. For dynamic GSIS, clusters were loaded into a cell chamber, perfused with buffer at 100 μL/min, and equilibrated in 2 mM glucose KRB for 90 min. The samples were then challenged for 12 min at 2 mM, 24 min at 20 mM, and 12 min at 2 mM glucose KRB, collecting effluent every 2-4 min. Human insulin was quantified with ELISA and data normalized to cell counts from Vi-Cell XR or DNA quantification using Quant-iT Picogreen dsDNA assay kit (Invitrogen).
(§3) Detection of phosphorylated and total eIF2α as performed by lysing cells in 1% Triton buffer (20 mM HEPES, pH 7.5, 150 mM NaCl, 1% Triton X-100, 10% glycerol (Sigma), 1 mM EDTA, 10 mM tetrasodium pyrophosphate (Sigma), 17.5 mM β-glycerophosphate (Sigma), PhosSTOP (Roche), and complete protease inhibitor cocktail (Roche). Detection of all other proteins was done by lysing cells in M-PER Mammalian Protein Extraction Reagent (Thermo Scientific) supplemented with cOmplete protease inhibitor cocktail. After 30 min incubation on ice, samples were centrifuged, supernatants collected, and protein-equivalent samples were loaded onto 4-20% Mini-PROTEAN TGX Precast Protein Gels (Bio-Rad) and transferred to an Immobilon-P PVDF Membrane (Millipore). The membrane was treated with 5% skimmed milk for 1 hr at RT and probed with the primary antibodies. The antibodies were detected using HRP-linked secondary antibodies. The density of each band was quantified using Image Lab software (Bio-Rad).
(§4) RNA was extracted with the RNeasy Mini Kit (Qiagen) with DNase treatment (Qiagen), cDNA was synthesized with the High Capacity cDNA Reverse Transcriptase Kit (Applied Biosystems using a thermocycler (Applied Biosystems), real-time PCR reactions were generated with PowerUp SYBR Green Master Mix (Applied Biosystems) using a StepOnePlus (Applied Biosystems), and data analyzed using ΔΔCt methodology. TBP and GUSB were used as normalization genes. Primer sequences used can be found in TABLE 8.
(§5) Cells were incubated for 48 hr with 10 μM Thapsigargin (EMD Chemicals), 30 mM glucose, or a cytokine mix including 500 ng/mL IFNγ (R&D Systems), 500 ng/mL TNFα (R&D Systems), and 100 ng/mL […] (R&D Systems).

[5] = test system: WS4^unedit stage 6 cells; assay: as above
Protocol: as §2, §3, §4, §5

[6] = test system: SC-β cells; assay: Refining stage 6 ESFM: components on top of base media, GSIS stimulation index; conditions: in ESFM, 20 mM; by increasing insulin secretion at low glucose
Protocol: Base Media • MCDB131 • 10% BSA • Glutamax • P/S • Glucose • Zn 10 μM
Treatment on Top of Base Media • 1-Trace A 1:1000 • 2-Trace B 1:1000 • 3-Trace C 1:1000 • 4-Heparin 10 μg/mL • 5-NEAA 1:100 • 6-Vitamin C 250 μM • 7-NaHCO320 mM • 8-Defined Lipid Mixture 1:1000 • 9-Defined Lipid Mixture 1:1000 • 10-Base • 11-S6 w/water dilution 1:100 • 12-S6 no water dilution
All samples had same total dilution of 1:100 with water to maintain same osmolarity amongst samples.

[7] = test system: stem cells in SC-β cell protocol; assay: Cytoskeletal modulating compounds added for first 24 hours of stages of the SC-β cell protocol, gene expression; conditions: added during stage 1, read at S2d1
Protocol: Small molecules that influence the state of the cytoskeleton were added for first 24 hours of various stages of the SC-β cell protocol.

[8] = test system: Stage 6 SC-Beta cells; assay: Compounds to improve SC-beta cells: 7 day culture, qPCR of 10 genes; conditions: 1 μg/mL, 6 days, qPCR vs Control 1
Protocol: Cultured 14 wells of 6-well plates containing Stage 6 SC-Beta cells differentiated in suspension by Punn. Two wells served as controls.
Each well was cultured in one of the following for 7 days*: • […] IFN Gamma • […] TNF Alpha • […] IL-1 Beta • Mixture of the above cytokines • 10% FBS • 10, 1, and 0.1 μM A83-01 • 10, 1, and 0.1 μM Alk5i Ill • 1 μg/mL Lefty A (*cultured for 6 days)
Ran qPCR and compared everything to Control 1 (had smallest Ct SD).

[9] = 10 μM Thapsigargin, 48 hr, static GSIS, WS4^corr stage 6 cells

Molecule: C=C1[C@@H](C)[C@H]2[C@H](Cc3ccccc3)NC(=O)[C@]23[C@H](OC(C)=O)/C=C/[C@@](C)(O)C(=O)[C@@H](C)C/C=C/[C@H]3[C@@H]1O [CytoD]
- insulin secretion [1]: increases

Molecule: Cc1ccc2nc(NC(=O)CSc3nc4c(c(=O)n3-c3ccccc3)SCC4)sc2c1 [IWP2]
- PDX1 yield at S3 ([2]; during Sd2-d4): promotes

Molecule: OC[C@H]1OC(O)[C@H](O)[C@@H](O)[C@@H]1O (stereo partly drawn) [High Glucoses]
- insulin secretion [1]: increases

Molecule: C/C=C(/C)C(=O)O[C@H]1C(C)=C2[C@H]([C@@H]1OC(=O)CCCCCCC)[C@@](C)(OC(C)=O)C[C@H](OC(=O)CCC)[C@@]1(O)[C@H]2OC(=O)[C@@]1(C)O [thapsigargin]
- De-differentiation signatures [3]: De-differentiation signatures occur
- mCherry fluorescence (insulin expression) [3]: reduces mCherry fluorescence
- decrease of insulin secretion [4, 9]: 3.9±0.7 ×
- glucose-responsiveness [4, 9]: eliminating glucose-responsiveness
- known stress markers ([4]; real-time PCR and western blot, bulk stage 6 population, WS4^corr cells): increasing known stress markers
- insulin secretion ([5]; 10 μM Thapsigargin, 48 hr, static GSIS, WS4^unedit stage 6 cells): not affected
- known stress markers ([5]; real-time PCR and western blot, bulk stage 6 population, WS4^unedit cells): increasing known stress markers

Molecule: O=C([O-])O.[Na+] [NAHCO3]
- stimulation index (GSIS) [6]: reduces stimulation index

Molecule: bFGF: growth factor added during stage 1
- differentiation ([2]; treatment during Stage 1): improves differentiation

Molecule: CCCCCCCCCCCCC/C=C/[C@@H](O)[C@@H](N)COP(=O)(O)O [s1p]
- expression of the mesoderm marker Brachyury T [7]: greatly increases

Molecule: Cc1ccc2c(c1)C(=O)C1(O)CCN(c3ccccc3)C1=N2 (stereo not drawn) [Blebbistatin]
- PDX1/NKX61 co expression [2]: Improves

Molecule: C[C@@H](N)[C@H]1CC[C@H](C(=O)Nc2ccncc2)CC1 [Y]
- PDX1/NKX61 co expression [2]: Improves

B1: Lefty A: factor added to stage 6 culture at 1 μg/mL (protein, UniProt O00292 77-366, looked up)
Left-right determination …: RFSQSFREVAGRFLASEASTHLLVFGMEQRLPPNSELVQAVLRLFQEPVPKAALHRHGRLSPRSAQARVTVEWLRVRDDGSNRTSLIDSRLVSVHESGWKAFDVTEAVNFWQQLSRPRQPLLLQVSVQREHLGPLASGAHKLVRFASQGAPAGLGEPQLELHTLDLRDYGAQGDCDPEAPMTEGTRCCRQEMYIDLQGMKWAKNWVLEPPGFLAYECVGTCQQPPEALAFNWPFLGPRQCIASETASLPMIVSIKEGGRTRPQVVSLPNMRVQKCSCASDGALVPRRLQP
- NKX6-1 expression [8]: slightly decreased
- genes with increased expression (IAPP, SIX2, CHGA, SIX3, G6PC2, MAF B) [8]: 6/10

B2: BC: Betacellulin, stage 5 factor (protein, UniProt P35070 32-111, looked up)
Betacellulin: DGNSTRSPETNGLLCGDPEENCAATTTQSKRKGHFSRCPKQYKHYCIKGRCRFVVAEQTPSCVCDEGYIGARCERVDLFY
modifications: Betacellulin
notes: Betacellulin, stage 5 factor
- requirement for Beta cell induction ([2]; removal during S5): not required
